Measured values: US8802597B2, “Herbicidal pyrimidines” (E I du Pont de Nemours and Company, priority 2003, dated 2014)
Where two headings read alike, the source gives them in different places.

Assays:
Test in all cases: Test A pre/postemergence
Assay type in all cases: in vivo
[1] = system: barnyardgrass (Echinochloa crus-galli); settings: Echinochloa crus-galli, 240 h, read-out: Plant response rating, Barnyardgrass; for pest or weed control at 125 g/ha: 125 g ai/ha; for pest or weed control at 500 g/ha: 500 g ai/ha
In short: (§1)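 Greenhouse herbicide test with preemergence directed soil spray and postemergence foliar spray at the 1- to 2-leaf stage; visual control rating 0–100 versus untreated at ~10 days.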

[2] = system: crabgrass (Digitaria sanguinalis); settings: Digitaria sanguinalis, 240 h, read-out: Plant response rating, Crabgrass; for pest or weed control at 125 g/ha: 125 g ai/ha; for pest or weed control at 500 g/ha: 500 g ai/ha
In short: as §1

[3] = system: giant foxtail (Setaria faberi); settings: Setaria faberi, 240 h, read-out: Plant response rating, Foxtail, Giant; for pest or weed control at 125 g/ha: 125 g ai/ha; for pest or weed control at 500 g/ha: 500 g ai/ha
In short: as §1

[4] = system: morningglory (Ipomoea spp.); settings: Ipomoea, 240 h, read-out: Plant response rating, Morningglory; for pest or weed control at 125 g/ha: 125 g ai/ha; for pest or weed control at 500 g/ha: 500 g ai/ha
In short: as §1

[5] = system: redroot pigweed (Amaranthus retroflexus); settings: Amaranthus retroflexus, 240 h, read-out: Plant response rating, Pigweed; for pest or weed control at 125 g/ha: 125 g ai/ha; for pest or weed control at 500 g/ha: 500 g ai/ha
In short: as §1

[6] = system: velvetleaf (Abutilon theophrasti); settings: Abutilon theophrasti, 240 h, read-out: Plant response rating, Velvetleaf; for pest or weed control at 125 g/ha: 125 g ai/ha; for pest or weed control at 500 g/ha: 500 g ai/ha
In short: as §1

[7] = post-emergence, Postemergence, 0 to 100 scale (0 no effect, 100 complete control)
[8] = pre-emergence, Preemergence, 0 to 100 scale where 0 is no effect and 100 is complete control, approximately ten days

Compound	pest or weed control at 125 g/ha [1, 7] [%]	pest or weed control at 500 g/ha [1, 7] [%]	pest or weed control at 125 g/ha [1, 8] [%]	pest or weed control at 500 g/ha [1, 8] [%]	pest or weed control at 125 g/ha [2, 7] [%]	pest or weed control at 500 g/ha [2, 7] [%]	pest or weed control at 125 g/ha [2, 8] [%]	pest or weed control at 500 g/ha [2, 8] [%]	pest or weed control at 125 g/ha [3, 7] [%]	pest or weed control at 500 g/ha [3, 7] [%]	pest or weed control at 125 g/ha [3, 8] [%]	pest or weed control at 500 g/ha [3, 8] [%]	pest or weed control at 125 g/ha [4, 7] [%]	pest or weed control at 500 g/ha [4, 7] [%]	pest or weed control at 125 g/ha [4, 8] [%]	pest or weed control at 500 g/ha [4, 8] [%]	pest or weed control at 125 g/ha [5, 7] [%]	pest or weed control at 500 g/ha [5, 7] [%]	pest or weed control at 125 g/ha [5, 8] [%]	pest or weed control at 500 g/ha [5, 8] [%]	also measured
COC(=O)c1nc(-c2ccc(Cl)cc2)nc(N)c1Cl [Compound 58, methyl 6-amino-5-chloro-2-(4-chlorophenyl)-4-pyrimidinecarboxylate]	5	10	0	0	5	10	0	0	0	50	0	10	55	80	10	25	70	80	0	60	pest or weed control at 125 g/ha [6, 7]: 70%; pest or weed control at 500 g/ha [6, 7]: 85%; pest or weed control at 125 g/ha [6, 8]: 0%; pest or weed control at 500 g/ha [6, 8]: 40%
COC(=O)c1nc(C2CC2)nc(N)c1OC [Compound 59]	0	30	0	15	0	10	0	0	0	35	0	0	90	100	80	100	60	80	20	70	pest or weed control at 125 g/ha [6, 7]: 60%; pest or weed control at 500 g/ha [6, 7]: 85%; pest or weed control at 125 g/ha [6, 8]: 10%; pest or weed control at 500 g/ha [6, 8]: 45%
CCOC(=O)c1nc(-c2ccc3c(c2)OCO3)nc(N)c1Cl [Compound 74]	30	70	0	50	30	60	20	50	60	70	0	40	40	30	0	30	60	70	0	40	pest or weed control at 125 g/ha [6, 7]: 70%; pest or weed control at 500 g/ha [6, 7]: 80%; pest or weed control at 125 g/ha [6, 8]: 30%; pest or weed control at 500 g/ha [6, 8]: 50%
CNc1nc(C2CC2)nc(C(=O)OC)c1Cl [Compound 79]	85	90	30	80	40	75	30	80	80	90	40	95	90	95	55	100	90	100	90	100	pest or weed control at 125 g/ha [6, 7]: 90%; pest or weed control at 500 g/ha [6, 7]: 95%; pest or weed control at 125 g/ha [6, 8]: 60%; pest or weed control at 500 g/ha [6, 8]: 90%
